Structures are written as SMILES.

Among the targets are D(3) dopamine receptor (Homo sapiens, UniProt P35462); D(2) dopamine receptor (Homo sapiens, UniProt P14416); Histamine H3 receptor (Homo sapiens, UniProt Q9Y5N1).
Series [1] concerns the target 5-hydroxytryptamine receptor 6 (Homo sapiens, UniProt P50406).
The target in series [2] is 5-hydroxytryptamine receptor 2A (Homo sapiens, UniProt P28223).
Series [3] deals with T1, 5-hydroxytryptamine receptor 2C (Homo sapiens, UniProt P28335).
T1 sequence (P28335 whole entry): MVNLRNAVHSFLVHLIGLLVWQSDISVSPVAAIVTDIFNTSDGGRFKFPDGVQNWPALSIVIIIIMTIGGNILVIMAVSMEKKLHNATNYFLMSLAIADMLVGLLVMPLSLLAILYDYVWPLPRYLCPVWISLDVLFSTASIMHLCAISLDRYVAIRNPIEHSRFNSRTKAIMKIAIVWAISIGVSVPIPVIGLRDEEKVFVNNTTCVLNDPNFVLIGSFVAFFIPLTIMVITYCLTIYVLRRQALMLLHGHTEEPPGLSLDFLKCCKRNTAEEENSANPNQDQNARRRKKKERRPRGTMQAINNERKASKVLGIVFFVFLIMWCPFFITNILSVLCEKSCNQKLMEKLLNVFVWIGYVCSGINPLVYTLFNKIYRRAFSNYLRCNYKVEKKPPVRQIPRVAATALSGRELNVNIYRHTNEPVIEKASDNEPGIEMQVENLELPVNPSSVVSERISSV

Series [4] concerns the target T2, 5-hydroxytryptamine receptor 1A (Homo sapiens, UniProt P08908).
T2 sequence (P08908 whole entry): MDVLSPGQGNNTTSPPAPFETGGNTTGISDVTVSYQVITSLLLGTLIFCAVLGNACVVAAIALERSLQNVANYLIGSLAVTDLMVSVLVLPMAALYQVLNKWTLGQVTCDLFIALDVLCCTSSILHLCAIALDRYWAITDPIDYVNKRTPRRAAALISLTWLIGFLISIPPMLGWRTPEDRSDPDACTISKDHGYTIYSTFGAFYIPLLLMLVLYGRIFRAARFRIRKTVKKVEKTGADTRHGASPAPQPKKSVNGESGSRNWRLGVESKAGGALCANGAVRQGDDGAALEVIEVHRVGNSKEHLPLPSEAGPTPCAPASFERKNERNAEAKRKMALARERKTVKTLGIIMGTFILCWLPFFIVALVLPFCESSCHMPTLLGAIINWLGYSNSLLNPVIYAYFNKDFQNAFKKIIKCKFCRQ

Series [5] concerns the target T3, Alpha-1A adrenergic receptor (Homo sapiens, UniProt P35348).
T3 sequence (P35348 whole entry): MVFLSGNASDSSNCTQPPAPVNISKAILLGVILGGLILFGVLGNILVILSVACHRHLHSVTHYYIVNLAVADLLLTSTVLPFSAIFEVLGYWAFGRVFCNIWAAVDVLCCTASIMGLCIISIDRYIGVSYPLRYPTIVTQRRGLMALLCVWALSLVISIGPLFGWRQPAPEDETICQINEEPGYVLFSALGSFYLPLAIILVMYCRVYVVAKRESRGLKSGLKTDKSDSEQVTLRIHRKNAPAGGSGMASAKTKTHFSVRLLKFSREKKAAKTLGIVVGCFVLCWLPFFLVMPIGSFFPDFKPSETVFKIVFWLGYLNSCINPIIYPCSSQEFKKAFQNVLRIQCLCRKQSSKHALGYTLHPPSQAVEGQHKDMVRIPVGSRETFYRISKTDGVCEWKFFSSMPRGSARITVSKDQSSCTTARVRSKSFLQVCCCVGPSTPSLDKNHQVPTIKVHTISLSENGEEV
Description: Binding affinity to alpha1 adrenoceptor (unknown origin)

In the next series the target is Histamine H1 receptor (Homo sapiens, UniProt P35367). It is filed as ADME.
Series [6] deals with Voltage-gated inwardly rectifying potassium channel KCNH2 (Homo sapiens, UniProt Q12809).
Description: Inhibition of human ERG by automated patch method relative to control
For series [7], the species on record is Mus musculus. The series can be described thus: animal or person. Conditions: po.
Description: Antipsychotic activity in po dosed mouse assessed as suppression of apomorphine-induced climbing behaviour
The next series is filed under the species Rattus norvegicus. The series can be described thus: animal or person. Conditions: po.
The conditions of series [8]: mouse, in vivo, po.
Description: Induction of catalepsy in po dosed mouse by Horizontal grid and elevated bar test
The species named for series [9] is Mus musculus. The series can be described thus: animal or person. Particulars: po. The source holds these as a separate data set.
Description: Antipsychotic activity in po dosed mouse assessed as reduction in MK-801-induced hyperlocomotor activity

Chain of Histamine H1 receptor (P35367 whole entry): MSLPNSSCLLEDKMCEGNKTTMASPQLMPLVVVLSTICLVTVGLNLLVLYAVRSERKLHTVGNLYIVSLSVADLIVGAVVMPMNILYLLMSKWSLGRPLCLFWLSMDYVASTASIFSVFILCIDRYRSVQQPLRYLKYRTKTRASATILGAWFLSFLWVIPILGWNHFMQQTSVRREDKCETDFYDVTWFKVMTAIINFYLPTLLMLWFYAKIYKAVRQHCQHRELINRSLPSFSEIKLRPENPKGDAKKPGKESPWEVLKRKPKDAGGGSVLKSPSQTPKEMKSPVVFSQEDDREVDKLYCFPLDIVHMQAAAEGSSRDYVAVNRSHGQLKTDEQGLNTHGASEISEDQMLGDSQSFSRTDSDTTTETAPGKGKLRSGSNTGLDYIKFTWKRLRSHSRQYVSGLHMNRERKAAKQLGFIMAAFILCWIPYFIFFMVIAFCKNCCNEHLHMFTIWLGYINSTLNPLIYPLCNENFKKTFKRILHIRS
Chain of Histamine H3 receptor (Q9Y5N1 whole entry): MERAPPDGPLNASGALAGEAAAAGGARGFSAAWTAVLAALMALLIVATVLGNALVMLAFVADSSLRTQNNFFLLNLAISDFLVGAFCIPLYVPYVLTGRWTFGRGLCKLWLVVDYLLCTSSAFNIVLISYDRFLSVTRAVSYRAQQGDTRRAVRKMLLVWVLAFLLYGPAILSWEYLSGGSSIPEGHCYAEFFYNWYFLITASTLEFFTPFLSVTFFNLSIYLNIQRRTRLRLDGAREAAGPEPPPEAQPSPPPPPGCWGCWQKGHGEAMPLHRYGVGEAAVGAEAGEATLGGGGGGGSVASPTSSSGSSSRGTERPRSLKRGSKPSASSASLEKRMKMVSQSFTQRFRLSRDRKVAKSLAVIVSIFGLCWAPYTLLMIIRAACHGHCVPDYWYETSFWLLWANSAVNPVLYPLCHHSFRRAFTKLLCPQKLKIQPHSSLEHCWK
Chain of 5-hydroxytryptamine receptor 2A (P28223 whole entry): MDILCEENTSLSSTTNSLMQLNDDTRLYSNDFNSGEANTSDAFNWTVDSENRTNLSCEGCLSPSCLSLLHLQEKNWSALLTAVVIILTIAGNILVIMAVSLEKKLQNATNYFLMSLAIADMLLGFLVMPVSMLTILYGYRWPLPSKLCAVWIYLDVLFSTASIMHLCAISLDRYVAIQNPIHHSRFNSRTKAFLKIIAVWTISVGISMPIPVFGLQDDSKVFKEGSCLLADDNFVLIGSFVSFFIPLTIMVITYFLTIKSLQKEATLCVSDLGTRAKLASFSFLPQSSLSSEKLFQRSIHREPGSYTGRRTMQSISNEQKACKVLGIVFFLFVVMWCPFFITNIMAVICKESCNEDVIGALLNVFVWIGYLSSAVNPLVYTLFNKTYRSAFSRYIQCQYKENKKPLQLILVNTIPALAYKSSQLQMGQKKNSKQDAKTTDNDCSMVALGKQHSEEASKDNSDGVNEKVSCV
Chain of D(3) dopamine receptor (P35462 whole entry): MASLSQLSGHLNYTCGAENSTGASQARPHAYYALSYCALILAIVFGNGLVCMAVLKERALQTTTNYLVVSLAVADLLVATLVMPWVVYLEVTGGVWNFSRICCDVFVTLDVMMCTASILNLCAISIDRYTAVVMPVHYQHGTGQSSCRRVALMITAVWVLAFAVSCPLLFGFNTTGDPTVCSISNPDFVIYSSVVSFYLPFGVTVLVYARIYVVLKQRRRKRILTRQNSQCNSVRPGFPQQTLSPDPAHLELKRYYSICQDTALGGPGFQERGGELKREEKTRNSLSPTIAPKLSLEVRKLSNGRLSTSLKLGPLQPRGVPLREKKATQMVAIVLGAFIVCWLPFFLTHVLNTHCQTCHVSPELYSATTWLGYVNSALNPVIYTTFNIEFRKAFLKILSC
Chain of D(2) dopamine receptor (P14416 whole entry): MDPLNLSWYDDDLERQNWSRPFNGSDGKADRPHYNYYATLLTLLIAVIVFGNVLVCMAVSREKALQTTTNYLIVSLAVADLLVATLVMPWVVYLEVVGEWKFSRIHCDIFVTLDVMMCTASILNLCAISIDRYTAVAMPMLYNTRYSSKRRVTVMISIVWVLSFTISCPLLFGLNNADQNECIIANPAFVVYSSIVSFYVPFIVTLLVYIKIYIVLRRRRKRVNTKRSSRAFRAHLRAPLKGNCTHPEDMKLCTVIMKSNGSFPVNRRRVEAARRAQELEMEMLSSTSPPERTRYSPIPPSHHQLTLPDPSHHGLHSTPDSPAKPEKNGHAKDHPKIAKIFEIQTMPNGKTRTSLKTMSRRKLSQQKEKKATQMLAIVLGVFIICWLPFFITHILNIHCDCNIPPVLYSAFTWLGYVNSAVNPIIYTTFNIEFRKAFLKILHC
Chain of 5-hydroxytryptamine receptor 6 (P50406 whole entry): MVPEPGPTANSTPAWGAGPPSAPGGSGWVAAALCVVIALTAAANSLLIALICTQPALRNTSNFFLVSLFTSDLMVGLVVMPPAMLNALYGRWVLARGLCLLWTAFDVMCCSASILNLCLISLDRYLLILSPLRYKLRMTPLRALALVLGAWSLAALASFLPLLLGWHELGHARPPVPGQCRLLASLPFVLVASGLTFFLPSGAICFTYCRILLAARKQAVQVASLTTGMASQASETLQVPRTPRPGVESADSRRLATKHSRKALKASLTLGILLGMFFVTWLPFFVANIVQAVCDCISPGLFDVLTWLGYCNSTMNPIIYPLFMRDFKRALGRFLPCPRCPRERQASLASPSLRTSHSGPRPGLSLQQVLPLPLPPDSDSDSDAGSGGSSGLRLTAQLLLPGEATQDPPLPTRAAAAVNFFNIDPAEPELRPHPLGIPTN
Chain of Voltage-gated inwardly rectifying potassium channel KCNH2 (Q12809 whole entry): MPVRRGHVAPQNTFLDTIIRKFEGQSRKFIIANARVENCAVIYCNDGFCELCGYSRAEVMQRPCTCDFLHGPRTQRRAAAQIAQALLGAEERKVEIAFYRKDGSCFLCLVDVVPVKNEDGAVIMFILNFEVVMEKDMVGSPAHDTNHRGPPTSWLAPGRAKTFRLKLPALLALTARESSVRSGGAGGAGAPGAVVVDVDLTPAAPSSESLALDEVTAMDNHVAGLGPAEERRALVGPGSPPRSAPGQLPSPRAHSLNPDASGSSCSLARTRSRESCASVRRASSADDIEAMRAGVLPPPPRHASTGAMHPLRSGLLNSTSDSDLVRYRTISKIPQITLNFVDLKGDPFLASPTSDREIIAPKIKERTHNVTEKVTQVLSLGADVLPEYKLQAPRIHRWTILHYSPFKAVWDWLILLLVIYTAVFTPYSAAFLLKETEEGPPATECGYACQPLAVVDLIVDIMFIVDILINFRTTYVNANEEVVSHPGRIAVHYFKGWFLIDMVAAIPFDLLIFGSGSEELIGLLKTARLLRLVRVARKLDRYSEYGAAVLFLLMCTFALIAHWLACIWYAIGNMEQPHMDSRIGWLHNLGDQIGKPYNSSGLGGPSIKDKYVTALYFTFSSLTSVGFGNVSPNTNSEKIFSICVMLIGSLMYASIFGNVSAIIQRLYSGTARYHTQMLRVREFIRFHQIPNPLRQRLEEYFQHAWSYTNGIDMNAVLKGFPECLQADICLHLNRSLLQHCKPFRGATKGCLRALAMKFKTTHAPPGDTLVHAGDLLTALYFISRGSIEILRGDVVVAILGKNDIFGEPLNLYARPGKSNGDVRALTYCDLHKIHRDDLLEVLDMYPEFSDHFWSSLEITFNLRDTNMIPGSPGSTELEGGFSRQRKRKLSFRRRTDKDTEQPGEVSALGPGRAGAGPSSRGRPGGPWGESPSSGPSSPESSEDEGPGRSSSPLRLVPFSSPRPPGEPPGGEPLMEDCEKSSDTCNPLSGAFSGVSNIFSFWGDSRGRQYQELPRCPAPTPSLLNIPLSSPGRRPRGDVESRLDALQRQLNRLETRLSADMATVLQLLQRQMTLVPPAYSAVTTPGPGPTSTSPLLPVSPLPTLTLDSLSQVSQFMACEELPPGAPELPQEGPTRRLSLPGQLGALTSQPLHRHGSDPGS
Description for D(2) dopamine receptor: Binding affinity to dopamine D2 receptor (unknown origin)
Description for D(3) dopamine receptor: Binding affinity to dopamine D3 receptor (unknown origin)
Description for Histamine H1 receptor: Binding affinity to histamine H1 receptor (unknown origin)
Description for Histamine H3 receptor: Binding affinity to histamine H3 receptor (unknown origin)
Description for Rattus norvegicus: Antipsychotic activity in po dosed rat assessed as suppression in conditioned avoidance response by CAR test

As usually defined, the Ki is a dissociation constant, usually derived from enzyme kinetics or from competition with a known ligand. Read a low Ki as higher affinity. On to `Cc1cc(=O)oc2c(Cl)c(OCCCCN3CCC(c4noc5cc(F)ccc45)CC3)ccc12`, for which the Ki was found to be 228 nM in [1]; 4.3 nM on D(3) dopamine receptor; 0.3 nM in series [2]; 1700 nM in series [3]; 3.3 nM in series [4]; 2570 nM in series [5]. The values for the Ki at Histamine H1 receptor and on D(2) dopamine receptor were 1130 nM and 2.6 nM, respectively.
Regarding `O=c1ccc(OCCCN2CCC(c3noc4cc(F)ccc34)CC2)nn1-c1c(F)cccc1F`, the Ki turned out to be 35.7 nM at D(3) dopamine receptor; 0.3 nM in [2]; 1580 nM in series [3]; 5.9 nM in series [4]; 337 nM in series [5]; 2000 nM on Histamine H1 receptor. This molecule also returned a Ki on D(2) dopamine receptor of 5 nM.
For the molecule `O=C(CCCN1CCC(c2noc3cc(F)ccc23)CC1)c1cc2c3c(c1)CCN3C(=O)CC2`, the Ki in series [1] worked out at 5.6 nM; on D(3) dopamine receptor it was 1.7 nM; in series [2], 0.7 nM; in series [3] it was 616 nM; in [4] it was 8.6 nM; in series [5] it was 43.1 nM. Besides, the Ki worked out at 630 nM at Histamine H1 receptor and 2.9 nM at D(2) dopamine receptor.
Usually IC50 stands for the midpoint of a concentration-inhibition curve. Consider `CN1CCN(Cc2ccc(OCCCCN3CCC(c4noc5cc(F)ccc45)CC3)cc2)CC1`, for which the Ki in series [1] was found to be 123 nM; at D(3) dopamine receptor it was 37.6 nM; in [2] it was 4.3 nM; on Histamine H3 receptor, 9.2 nM; in series [3] it was 426 nM; in series [4], 12.4 nM. The Ki was 354 nM in series [5], 642 nM on Histamine H1 receptor and 1.9 nM on D(2) dopamine receptor. This molecule also displayed an IC50 in [6] of 1060 nM.
For the molecule `Fc1ccc2c(C3CCN(CCCOc4ccc(CN5CCCC5)cc4)CC3)noc2c1`, the Ki amounted to 8.6 nM in series [2], 93.7 nM on Histamine H3 receptor, 81.6 nM in [4] and 12.2 nM at D(2) dopamine receptor.
The corresponding values for `Fc1ccc2c(C3CCN(CCCOc4ccc(CN5CCOCC5)cc4Cl)CC3)noc2c1` are 5.7 nM, 149 nM, 105 nM and 2.5 nM.
For `Fc1ccc2c(C3CCN(CCCCOc4ccc(CN5CCOCC5)cc4)CC3)noc2c1`, the Ki in series [2] came to 4.5 nM; on Histamine H3 receptor, 153 nM; in [4], 95.4 nM; at D(2) dopamine receptor it was 2 nM.
For the molecule `Cc1cc(OCCCN2CCC(c3noc4cc(F)ccc34)CC2)ccc1CN1CCCC1`, the Ki in [2] was found to be 11.5 nM; at Histamine H3 receptor, 113 nM; in series [4] it was 89.3 nM; at D(2) dopamine receptor, 12.6 nM.
For `CN1CCN(CCc2ccc(OCCCN3CCC(c4noc5cc(F)ccc45)CC3)cc2)CC1`, the figures for the Ki (in [2]; on Histamine H3 receptor; in series [4]) were 8.6 nM, 271 nM and 16.4 nM, respectively.
Take `Fc1ccc2c(C3CCN(CCCOc4ccc(CN5CCCCC5)cc4F)CC3)noc2c1`: the Ki was determined as 6.5 nM in [2], 270 nM at Histamine H3 receptor, 90.6 nM in series [4] and 10.3 nM on D(2) dopamine receptor.
For the molecule `Fc1ccc2c(C3CCN(CCCOc4ccc(CN5CCOCC5)cc4F)CC3)noc2c1`, the Ki in series [2] is 5.6 nM; on Histamine H3 receptor it was 195 nM; in [4] it was 100 nM; on D(2) dopamine receptor it was 1.9 nM.
Regarding `CC1CCN(CCc2ccc(OCCCN3CCC(c4noc5cc(F)ccc45)CC3)cc2)CC1`, the Ki in series [2] turned out to be 42.9 nM; at Histamine H3 receptor it was 11.9 nM; in series [4], 9.6 nM; on D(2) dopamine receptor, 7.4 nM.
Take `Fc1ccc2c(C3CCN(CCCOc4ccc(CCN5CCCCC5)cc4)CC3)noc2c1`: the Ki in [1] is 149 nM; on D(3) dopamine receptor, 15.2 nM; in [2], 9.4 nM; on Histamine H3 receptor, 13.4 nM; in series [3] it was 753 nM; in series [4] it was 7.4 nM. The Ki in series [5] stood at 536 nM; at Histamine H1 receptor, 1020 nM; at D(2) dopamine receptor, 9.7 nM. Besides, the IC50 in [6] amounted to 2290 nM.
Take `CC1CCN(CCc2ccc(OCCCCN3CCC(c4noc5cc(F)ccc45)CC3)cc2)CC1`: the Ki is 5.1 nM in [2], 15.8 nM at Histamine H3 receptor, 4.4 nM in series [4] and 2.7 nM on D(2) dopamine receptor.
The matching figures for `Fc1ccc2c(C3CCN(CCCOc4ccc(CN5CCOCC5)c(Cl)c4)CC3)noc2c1`: 6.3 nM, 163 nM, 152 nM and 5.4 nM.
The matching figures for `Fc1ccc2c(C3CCN(CCCOc4ccc(CN5CCCCC5)cc4)CC3)noc2c1`: 5.1 nM, 270 nM, 89.7 nM and 10.8 nM.
`CN1CCN(Cc2ccc(OCCCN3CCC(c4noc5cc(F)ccc45)CC3)cc2)CC1`: the Ki in [1] turned out to be 93.3 nM; at D(3) dopamine receptor, 23.2 nM; in series [2] it was 4.7 nM; on Histamine H3 receptor, 8.2 nM; in series [3] it was 573 nM; in [4] it was 11.9 nM. Besides, the inhibition constant Ki in series [5] came to 332 nM; on Histamine H1 receptor, 719 nM; at D(2) dopamine receptor, 1.7 nM. In addition, in series [6], it took 1560 nM to reach half-maximal inhibition (IC50).
Consider `COc1cc(CN2CCCCC2)ccc1OCCCN1CCC(c2noc3cc(F)ccc23)CC1`, for which the Ki worked out at 9 nM in [2], 256 nM at Histamine H3 receptor, 67.7 nM in series [4] and 9.5 nM at D(2) dopamine receptor.
The matching figures for `Fc1ccc2c(C3CCN(CCCOc4ccc(CN5CCOCC5)cc4)CC3)noc2c1`: 4.4 nM, 166 nM, 85.5 nM and 1.5 nM.
The corresponding values for `COc1cc(CN2CCOCC2)ccc1OCCCN1CCC(c2noc3cc(F)ccc23)CC1` are 4.9 nM, 147 nM, 112 nM and 2.6 nM.
The corresponding values for `Fc1ccc2c(C3CCN(CCCOc4ccc(CN5CCCCC5)c(F)c4)CC3)noc2c1` are 6.2 nM, 312 nM, 92.1 nM and 11.6 nM.
Turning to `COc1cc(CN2CCCC2)ccc1OCCCN1CCC(c2noc3cc(F)ccc23)CC1`, the Ki in [2] came out at 10.8 nM; on Histamine H3 receptor it was 151 nM; in [4] it was 77.9 nM; at D(2) dopamine receptor it was 6.2 nM.
The corresponding values for `Cc1cc(OCCCN2CCC(c3noc4cc(F)ccc34)CC2)ccc1CN1CCOCC1` are 5.1 nM, 164 nM, 100 nM and 3.1 nM.
Turning to `Fc1ccc2c(C3CCN(CCCOc4ccc(CN5CCOCC5)c(F)c4)CC3)noc2c1`, the Ki worked out at 5.2 nM in [2], 187 nM at Histamine H3 receptor, 92.2 nM in [4] and 2 nM on D(2) dopamine receptor.
The corresponding values for `Fc1ccc2c(C3CCN(CCCOc4ccc(CN5CCCC5)cc4Cl)CC3)noc2c1` are 10.1 nM, 125 nM, 79.2 nM and 14.1 nM.
The ED50 is the dose at which the effect has come halfway, by size or by number of responders. A low value points to greater potency. Turning to `Cc1nc2n(c(=O)c1CCN1CCC(c3noc4cc(F)ccc34)CC1)CCCC2` [RISPERIDONE], the ED50 in the series filed under Mus musculus [7] is 0.02 mg/kg; in the series listed under Rattus norvegicus it was 0.6 mg/kg; in series [8] it was 1.6 mg/kg; in the series listed under Mus musculus [9] it was 0.04 mg/kg.
